ChEMBL document CHEMBL1955774, “Radiosynthesis of [11C]BBAC and [11C]BBPC as potential PET tracers for orexin2 receptors” (Bioorg Med Chem Lett, 2012)

Tests used:
Brain [1] = experiment: Drug uptake in anesthetized rhesus monkey brain at 1.5 ug measured for 122 mins by PET analysis; format: ADME, tissue-based, Macaca mulatta; details: in vivo
[2] = Partition coefficient, log P of the compound by shake flask method; format: physicochemical; details: octanol/water
Brain [3] = experiment: Drug uptake in anesthetized rhesus monkey brain at 1.7 ug measured for 122 mins by PET analysis; format: ADME, tissue-based, Macaca mulatta; details: in vivo

Drug uptake (Brain [1])	logP [2]	Drug uptake (Brain [3])	Structure (SMILES)
Not Active	3.4	–	[11CH3]n1c(SCC(=O)N2CCC[C@H]2C(=O)Nc2ccccc2-c2ccccc2)nc2ccccc21
–	2.8	Not Active	[11CH3]n1c(CCC(=O)N2CCC[C@H]2C(=O)Nc2ccccc2-c2ccccc2)nc2ccccc21
